In BindingDB's records for doi:10.1021/jm960720+ (Ansto, 1997):

What follows are molecules tested against Sigma non-opioid intracellular receptor 1 (Cavia porcellus) (UniProt Q60492) (assay: Receptor binding affinity against Sigma-1 receptor from guinea pig membranes).
Sigma non-opioid intracellular receptor 1 (Cavia porcellus), sequence (Q60492 whole entry, looked up): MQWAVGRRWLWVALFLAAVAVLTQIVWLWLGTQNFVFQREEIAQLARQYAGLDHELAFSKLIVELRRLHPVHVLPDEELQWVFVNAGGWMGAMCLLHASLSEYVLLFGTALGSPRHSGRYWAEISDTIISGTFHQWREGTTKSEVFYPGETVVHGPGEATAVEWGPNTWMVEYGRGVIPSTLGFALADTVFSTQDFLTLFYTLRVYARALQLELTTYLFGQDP
In the case of `O=[N+]([O-])c1ccc(OCC2CCN(Cc3ccc(F)cc3)CC2)cc1` [1-(4-Fluoro-benzyl)-4-(4-nitro-phenoxymethyl)-piperidine], the Ki is reported as 1.2 nM.

The molecules below were run against Sigma non-opioid intracellular receptor 1 (Cavia porcellus) (UniProt Q60492) (assay: In vitro for binding affinity at sigma-1 receptor by measuring its ability to displace [3H](+)-pentazocine from guinea pig membranes).
`N#Cc1ccc(OCC2CCN(CCCF)CC2)cc1` was tested, and the Ki was 4.3 nM. `FCCN1CCC(COc2ccc(I)cc2)CC1` [1-(2-Fluoro-ethyl)-4-(4-iodo-phenoxymethyl)-piperidine] gave a Ki of 0.84 nM. Work on `Fc1cccc(CN2CCC(COc3c(F)c(F)c(F)c(F)c3F)CC2)c1` [1-(3-Fluoro-benzyl)-4-pentafluorophenyloxymethyl-piperidine] yielded a Ki of 3.3 nM. For `FCCCN1CCC(COc2c(F)c(F)c(F)c(F)c2F)CC1` [1-(3-Fluoro-propyl)-4-pentafluorophenyloxymethyl-piperidine], the Ki was 1.7 nM. With `Fc1ccc(CN2CCC(COc3c(F)c(F)c(F)c(F)c3F)CC2)cc1` [1-(4-Fluoro-benzyl)-4-pentafluorophenyloxymethyl-piperidine] the Ki was 3.6 nM. For `Ic1ccc(OCC2CCN(CC3CC3)CC2)cc1` [1-Cyclopropylmethyl-4-(4-iodo-phenoxymethyl)-piperidine], the Ki was 0.5 nM. `Fc1c(F)c(F)c(CN2CCC(COc3c(F)c(F)c(F)c(F)c3F)CC2)c(F)c1F` [1-Pentafluorophenylmethyl-4-pentafluorophenyloxymethyl-piperidine] was tested, and the Ki was > 1000 nM. In the case of `OCCN1CCC(COc2ccc(I)cc2)CC1` [2-[4-(4-Iodo-phenoxymethyl)-piperidin-1-yl]-ethanol], the Ki is reported as 2.3 nM. `N#Cc1ccccc1CN1CCC(COc2ccc(I)cc2)CC1` [2-[4-(4-Iodo-phenoxymethyl)-piperidin-1-ylmethyl]-benzonitrile] showed a Ki of 10.5 nM. `N#Cc1cccc(CN2CCC(COc3ccc(I)cc3)CC2)c1` [3-[4-(4-Iodo-phenoxymethyl)-piperidin-1-ylmethyl]-benzonitrile] gave a Ki of 2.9 nM. `Brc1cccc(OCC2CCN(CC3CC3)CC2)c1` [4-(3-Bromo-phenoxymethyl)-1-cyclopropylmethyl-piperidine] was tested, and the Ki was 0.88 nM. `FCCCN1CCC(COc2ccc(Br)cc2)CC1` [4-(4-Bromo-phenoxymethyl)-1-(3-fluoro-propyl)-piperidine] was tested, and the Ki was 0.38 nM. For `Brc1ccc(OCC2CCN(CC3CC3)CC2)cc1` [4-(4-Bromo-phenoxymethyl)-1-cyclopropylmethyl-piperidine], the Ki was 0.6 nM. In the case of `N#Cc1ccc(OCC2CCN(Cc3ccccc3Br)CC2)cc1` [4-[1-(2-Bromo-benzyl)-piperidin-4-ylmethoxy]-benzonitrile], the Ki is reported as 2.02 nM. `N#Cc1ccc(OCC2CCN(CCF)CC2)cc1` [4-[1-(2-Fluoro-ethyl)-piperidin-4-ylmethoxy]-benzonitrile] gave a Ki of 24.3 nM. In the case of `N#Cc1ccc(OCC2CCN(Cc3ccccc3I)CC2)cc1` [4-[1-(2-Iodo-benzyl)-piperidin-4-ylmethoxy]-benzonitrile], the Ki is reported as 9.24 nM. `N#Cc1ccc(OCC2CCN(Cc3ccc(F)cc3)CC2)cc1` [4-[1-(4-Fluoro-benzyl)-piperidin-4-ylmethoxy]-benzonitrile] gave a Ki of 0.76 nM.
